“And” between values parts separate entries of the source, which are not always exact repeats. Identical values can stand only once. Like-named read-outs stand apart in the source and are kept apart here.
Tests used:
[1] = Microsomal incubations, human liver microsomes; type: in vitro ADME; settings: 1 μM
Description: (§1) Metabolic stability assays were performed using a Microlab Star liquid handling workstation (Hamilton Robotics, Bonaduz, Switzerland). Test compounds (1 μM, 1% DMSO) were preincubated at 37 °C for 10 min in 0.5 mg/mL female CD1 mouse and mixed gender human liver microsomes in 10 mM phosphate buffered saline (PBS; Sigma-Aldrich Company Ltd. (Dorset, UK)). Microsomes were purchased either from Sekisui XenoTech, LLC (Kansas City, USA) or BioreclamationIVT (Frankfurt Am Main, Germany). Reactions were initiated by the addition of NADPH (final concentration 1 mM). At 0, 15, and 30 min, aliquots were removed from each incubation and quenched in 3 volumes of ice-cold methanol containing olomoucine (Sigma-Aldrich, Dorset, UK) as an internal standard. […] The percentage metabolized was calculated by comparing peak area ratio (peak area test compound/peak area of internal standard) at t = 15 and 30 min versus t = 0 min.

[2] = PAMPA parallel artificial membrane permeability assay; settings: for recovery at 16 h, 10 µM / Papp at 16 h, 10 μM: PAMPA
Description: Passive diffusion was estimated using the PAMPA method. […] The donor plate was a MultiScreen-IP Plate with 0.45 μm hydrophobe Immobilon-P Membrane (Millipore, #MAIPNTR10) and the acceptor plate was a MultiScreen 96-well Transport Receiver Plate (Millipore, #MATRNPS50). […] Acceptor pH was 7.4. All samples were analyzed against an external, matrix-matched, standard curve by LC-MS/MS with a Waters (Elstree, Herts. UK) Acquity H-class LC system coupled to a Waters TQ-S mass spectrometer. Permeability values (cm/s) were calculated using the following equation: [drawing 2] and VD = volume of donor; VA = volume of acceptor; area = surface area of the membrane · porosity.

[3] = Caco-2 permeability assay; type: in vitro ADME, human; settings: human; for Papp A→B at 2 h, 10 μM / Papp B→A at 2 h, 10 μM / recovery at 2 h, 10 µM: Caco-2, pH 7.4, 10 µM; for efflux ratio at 2 h, 10 µM: Caco-2, pH 7.4, read-out: Caco-2 Eflux Ratio (B>A/A>B)
Description: (§2) Apparent permeability (Papp) was determined in the Caco-2 human colon carcinoma cell line. Cells were maintained in DMEM containing 10% fetal bovine serum, penicillin and streptomycin in a humidified atmosphere with 5% CO2 for 10 days. Cells were plated onto a cell culture assembly plate (Millipore, UK) and monolayer confluency was checked using a TEER electrode prior to the assay. Medium was washed off and replaced in the appropriate apical and basal wells with HBSS buffer (pH 7.4) containing compounds (10 μM, 1% DMSO). The Caco-2 plate was incubated for 2 h at 37 °C, and Lucifer yellow was used to confirm membrane integrity postassay. […] Papp was determined as follows: [drawing 1] where Vr = volume of receptical; A = surface area of monolayer; C0 = Initial compound concentration in donor.

[4] = system: Caco-2 human colon carcinoma cell line; assay: Caco-2 permeability assay; type: in vitro ADME
Description: as §2

[5] = Microsomal incubations, mouse liver microsomes; type: in vitro ADME; settings: 1 μM
Description: as §1

HHAT = target: HHAT; design: method as in PMID 34890564, PMID 33768725; settings: read-out: Ki, competitive inhibitor of Pal-CoA; cited from earlier work
[6] = pH 5, PAMPA Papp pH 5, donor pH 5, 10 µM
[7] = pH 5, PAMPA Permeability Class pH 5, donor pH 5, 10 µM
[8] = pH 6.5, PAMPA Papp pH 6.5, donor pH 6.5, 10 µM
[9] = pH 6.5, PAMPA Permeability Class pH 6.5, donor pH 6.5, 10 µM
[10] = pH 7.4, PAMPA Papp pH 7.4, donor pH 7.4, 10 µM
[11] = pH 7.4, PAMPA Permeability Class pH 7.4, donor pH 7.4, 10 µM
[12] = + Verapamil (P-glycoprotein inhibitor)
[13] = + Verapamil (P-glycoprotein inhibitor), read-out: Caco-2 A>B Recovery
[14] = + Verapamil (P-glycoprotein inhibitor), read-out: Caco-2 B>A Recovery
[15] = without Verapamil, read-out: Caco-2 A>B Recovery
[16] = without Verapamil, read-out: Caco-2 B>A Recovery

HLM % metabolized after 15 min [1] [%]	HLM % metabolized after 30 min [1] [%]	recovery at 16 h, 10 µM ([2]; pH 5) [%]	Papp at 16 h, 10 μM [2, 6] [×10⁻⁶ cm/s]	Papp at 16 h, 10 μM [2, 7] [×10⁻⁶ cm/s]	recovery at 16 h, 10 µM ([2]; pH 6.5) [%]	Papp at 16 h, 10 μM [2, 8] [×10⁻⁶ cm/s]	Papp at 16 h, 10 μM [2, 9] [×10⁻⁶ cm/s]	recovery at 16 h, 10 µM ([2]; pH 7.4) [%]	Papp at 16 h, 10 μM [2, 10] [×10⁻⁶ cm/s]	Papp at 16 h, 10 μM [2, 11] [×10⁻⁶ cm/s]	PAMPA passive permeability ([2]; pH 7.4)	Papp A→B at 2 h, 10 μM [3, 12] [×10⁻⁶ cm/s]	Papp B→A at 2 h, 10 μM [3, 12] [×10⁻⁶ cm/s]	recovery at 2 h, 10 µM [3, 13] [%]	recovery at 2 h, 10 µM [3, 14] [%]	Papp A→B at 2 h, 10 μM ([3]; without Verapamil) [×10⁻⁶ cm/s]	Papp B→A at 2 h, 10 μM ([3]; without Verapamil) [×10⁻⁶ cm/s]	MLM % metabolized after 15 min [5]	MLM % metabolized after 30 min [5] [%]	Compound	other results
43.0	69.5	< 31	< 1.5	< 5	< 10	10.9	5 to 20	< 10	20.4	> 20	high passive permeability	8.3 ± 0.9	12.5 ± 1.9	41.1 ± 1	51.6 ± 1	14.5 ± 0.4	12.4 ± 2.1	90.8% and > 90%	98.4	C=CCNCC(=O)N1CCc2sccc2C1COc1ccc(Cl)cc1 (centres unmarked) [Compound 2]	recovery at 2 h, 10 µM [3, 15]: 56.7 ± 1.9%; recovery at 2 h, 10 µM [3, 16]: 87.8 ± 1.2%; efflux ratio at 2 h, 10 µM [3]: 0.86; Caco-2 efflux [4]: no detectable efflux; Caco-2 permeability [4]: moderate-high permeability
52.5	64.3	95	> 200	> 20	98	117	> 20	91	> 200	> 20	high passive permeability							99.5% and > 90%	99.4	CC(=O)N1CCc2sccc2C1c1ccccc1 (centres unmarked) [Compound 5]	PAMPA permeability ([2]; over the full pH range tested): high permeability
36.9	56.2	< 65	< 0.4	< 5	< 23	13	5 to 20	< 15	42.4	> 20	high passive permeability	35.5 ± 2	22.7 ± 3.3	70 ± 2.5	75.7 ± 2	39.2 ± 0.7	29.7 ± 0.2	98.1% and > 90%	99.7	CCC(C)CNCC(=O)N1CCc2sccc2C1c1cccc(C)n1 (centres unmarked) [Compound 22]	recovery at 2 h, 10 µM [3, 15]: 88.7 ± 0.1%; recovery at 2 h, 10 µM [3, 16]: 108 ± 3.1%; efflux ratio at 2 h, 10 µM [3]: 0.76; Caco-2 efflux [4]: no detectable efflux; Caco-2 permeability [4]: moderate-high permeability
44.4	66.7	< 31	< 0.7	< 5	< 10	< 9.7	5 to 20	< 10	< 4.5	< 5		14.2 ± 0.8	19.8 ± 2	58.6 ± 0.9	66.6 ± 1.9	17 ± 2.5	17.4 ± 4.1	99.5% and > 90%	100.0	CCC(C)CNCC(=O)N1CCc2sccc2C1c1cccc(C)c1 (centres unmarked) [Compound 17]	recovery at 2 h, 10 µM [3, 15]: 60.5 ± 2.4%; recovery at 2 h, 10 µM [3, 16]: 80.4 ± 2.2%; efflux ratio at 2 h, 10 µM [3]: 1.02
28.8	36.9																	> 90% and 95.5%	99.7	Cc1cccc([C@H]2c3ccsc3CCN2C(=O)CNCC(C)C)n1 [Compound 30]	Ki (HHAT): 38 nM

— article PMC10823475, “Design, Synthesis, and Evaluation of Inhibitors of Hedgehog Acyltransferase” (Journal of Medicinal Chemistry, 2024)
